Data reported in PubChem BioAssay AID2060909 (Molecular Pharmacology Branch, DTP, NCI, 2025).
“And” between values parts separate entries of the source, which are not always exact repeats. Identical values can stand only once.

Tested on: 362531-283-R-J2-PDC complex spheroid viability
Assay: Anticancer human tumor 362531-283-R-J2-PDC patient-derived colon adenocarcinoma cell line growth inhibition [RAS]
Conditions: for viability, T/C: stronger effect = lower value
How it was run: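 Agents were tested in combination matrices in half-log decrements from a top concentration at or near clinical Cmax (10 microM if undetermined). Targets were multi-cell spheroids of tumour lines plus HUVEC and MSC stromal cells.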

[1] = curve of first compound, second compound 0.0316 µM
[2] = curve of first compound, second compound 0.1 µM
[3] = curve of first compound, second compound 0.316 µM
[4] = curve of first compound, second compound 1 µM
[5] = second compound 0.0316 µM, first compound 0.0316 µM
[6] = second compound 0.0316 µM, first compound 0.1 µM
[7] = second compound 0.0316 µM, first compound 0.316 µM
[8] = second compound 0.0316 µM, first compound 1 µM
[9] = second compound 0.1 µM, first compound 0.0316 µM
[10] = second compound 0.1 µM, first compound 0.1 µM
[11] = second compound 0.1 µM, first compound 0.316 µM
[12] = second compound 0.1 µM, first compound 1 µM
[13] = second compound 0.316 µM, first compound 0.0316 µM
[14] = second compound 0.316 µM, first compound 0.1 µM
[15] = second compound 0.316 µM, first compound 0.316 µM
[16] = second compound 0.316 µM, first compound 1 µM
[17] = second compound 1 µM, first compound 0.0316 µM
[18] = second compound 1 µM, first compound 0.1 µM
[19] = second compound 1 µM, first compound 0.316 µM
[20] = second compound 1 µM, first compound 1 µM
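Also: spheroids exposed to the agents for 7 days before readout.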
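For viability, T/C in this document: luminescence viability as percent of DMSO vehicle control wells.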

## C=CC(=O)Nc1cc(Nc2nccc(-c3cn(C)c4ccccc34)n2)c(OC)cc1N(C)CCN(C)C + C=CC(=O)N1CCN(c2nc(OCC3CCCN3C)nc3c(F)c(-c4nc(N)cc(C)c4C(F)(F)F)c(Cl)cc23)C(C)C1
Curve of first compound, second compound 0.00316 µM
  IC50: > 1000 nM
Curve of first compound, second compound 0.01 µM
  IC50: > 1000 nM
[1]
  IC50: > 1000 nM
[2]
  IC50: > 1000 nM
[3]
  IC50: > 1000 nM
[4]
  IC50: > 1000 nM
Second compound 0.00316 µM, first compound 0.00316 µM
  viability, T/C: 103%
Second compound 0.00316 µM, first compound 0.01 µM
  viability, T/C: 97.4%
Second compound 0.00316 µM, first compound 0.0316 µM
  viability, T/C: 100%
Second compound 0.00316 µM, first compound 0.1 µM
  viability, T/C: 95.6%
Second compound 0.00316 µM, first compound 0.316 µM
  viability, T/C: 89%
Second compound 0.00316 µM, first compound 1 µM
  viability, T/C: 69.8%
Second compound 0.01 µM, first compound 0.00316 µM
  viability, T/C: 107%
Second compound 0.01 µM, first compound 0.01 µM
  viability, T/C: 100%
Second compound 0.01 µM, first compound 0.0316 µM
  viability, T/C: 104%
Second compound 0.01 µM, first compound 0.1 µM
  viability, T/C: 98.3%
Second compound 0.01 µM, first compound 0.316 µM
  viability, T/C: 96.9%
Second compound 0.01 µM, first compound 1 µM
  viability, T/C: 56%
Second compound 0.0316 µM, first compound 0.00316 µM
  viability, T/C: 104%
Second compound 0.0316 µM, first compound 0.01 µM
  viability, T/C: 99.2%
[5]
  viability, T/C: 98.3%
[6]
  viability, T/C: 94.9%
[7]
  viability, T/C: 93.5%
[8]
  viability, T/C: 65.5%
Second compound 0.1 µM, first compound 0.00316 µM
  viability, T/C: 103%
Second compound 0.1 µM, first compound 0.01 µM
  viability, T/C: 104%
[9]
  viability, T/C: 101%
[10]
  viability, T/C: 96.8%
[11]
  viability, T/C: 101%
[12]
  viability, T/C: 62.8%
Second compound 0.316 µM, first compound 0.00316 µM
  viability, T/C: 93.8%
Second compound 0.316 µM, first compound 0.01 µM
  viability, T/C: 96%
[13]
  viability, T/C: 98.1%
[14]
  viability, T/C: 94.8%
[15]
  viability, T/C: 96.2%
[16]
  viability, T/C: 54.9%
Second compound 1 µM, first compound 0.00316 µM
  viability, T/C: 105%
Second compound 1 µM, first compound 0.01 µM
  viability, T/C: 95.8%
[17]
  viability, T/C: 97.4%
[18]
  viability, T/C: 103%
[19]
  viability, T/C: 86.5%
[20]
  viability, T/C: 70.7%

## NC1c2ccccc2OC12CCN(c1cnc3c(N4CCCc5ncccc54)n[nH]c3n1)CC2 (stereo not drawn)
Compound 0.0316 µM
  viability, T/C: 95.1% [middle of 4 runs]
Compound 0.1 µM
  viability, T/C: 90% [middle of 4 runs]
Compound 0.316 µM
  viability, T/C: 85.3% [middle of 4 runs]
Compound 1 µM
  viability, T/C: 76.1% [middle of 4 runs]
Compound 3.16 µM
  viability, T/C: 68.5% [middle of 4 runs]
Compound 10 µM
  viability, T/C: 49.4% [middle of 4 runs]
Curve of compound
  IC50: > 10000 nM and 6070 nM and 8410 nM

## NC1c2ccccc2OC12CCN(c1cnc3c(N4CCCc5ncccc54)n[nH]c3n1)CC2 (stereo not drawn) + C#Cc1c(F)ccc2cc(O)cc(-c3ncc4c(N5CC6CCC(C5)N6)nc(OCC56CCCN5CC(F)C6)nc4c3F)c12
[1]
  IC50: 354 nM
[2]
  IC50: 175 nM
[3]
  IC50: 75.2 nM
[4]
  IC50: 35.8 nM
Curve of first compound, second compound 3.16 µM
  IC50: < 31.6 nM
Curve of first compound, second compound 10 µM
  IC50: < 31.6 nM
[5]
  viability, T/C: 98.7%
[6]
  viability, T/C: 73.2%
[7]
  viability, T/C: 60.9%
[8]
  viability, T/C: 10.6%
Second compound 0.0316 µM, first compound 3.16 µM
  viability, T/C: 5.23%
Second compound 0.0316 µM, first compound 10 µM
  viability, T/C: 1.84%
[9]
  viability, T/C: 79.7%
[10]
  viability, T/C: 78.1%
[11]
  viability, T/C: 20.7%
[12]
  viability, T/C: 7.72%
Second compound 0.1 µM, first compound 3.16 µM
  viability, T/C: 6.1%
Second compound 0.1 µM, first compound 10 µM
  viability, T/C: 1.33%
[13]
  viability, T/C: 84.2%
[14]
  viability, T/C: 38.8%
[15]
  viability, T/C: 9.03%
[16]
  viability, T/C: 6.67%
Second compound 0.316 µM, first compound 3.16 µM
  viability, T/C: 5.3%
Second compound 0.316 µM, first compound 10 µM
  viability, T/C: 1.76%
[17]
  viability, T/C: 54.7%
[18]
  viability, T/C: 12.8%
[19]
  viability, T/C: 10.8%
[20]
  viability, T/C: 6.95%
Second compound 1 µM, first compound 3.16 µM
  viability, T/C: 5.9%
Second compound 1 µM, first compound 10 µM
  viability, T/C: 1.83%
Second compound 3.16 µM, first compound 0.0316 µM
  viability, T/C: 25.5%
Second compound 3.16 µM, first compound 0.1 µM
  viability, T/C: 9.78%
Second compound 3.16 µM, first compound 0.316 µM
  viability, T/C: 9.64%
Second compound 3.16 µM, first compound 1 µM
  viability, T/C: 6.45%
Second compound 3.16 µM, first compound 3.16 µM
  viability, T/C: 5.47%
Second compound 3.16 µM, first compound 10 µM
  viability, T/C: 1.34%
Second compound 10 µM, first compound 0.0316 µM
  viability, T/C: 11.1%
Second compound 10 µM, first compound 0.1 µM
  viability, T/C: 6.83%
Second compound 10 µM, first compound 0.316 µM
  viability, T/C: 5.98%
Second compound 10 µM, first compound 1 µM
  viability, T/C: 5.62%
Second compound 10 µM, first compound 3.16 µM
  viability, T/C: 2.9%
Second compound 10 µM, first compound 10 µM
  viability, T/C: 1.51%

## NC1c2ccccc2OC12CCN(c1cnc3c(N4CCCc5ncccc54)n[nH]c3n1)CC2 (stereo not drawn) + CCn1c(-c2cc(N3CCN(C)CC3)cnc2C(C)OC)c2c3cc(ccc31)-c1csc(n1)CC(NC(=O)C1CC1C)C(=O)N1CCCC(N1)C(=O)OCC(C)(C)C2
Curve of first compound, second compound 0.000949 µM
  IC50: 2040 nM
Curve of first compound, second compound 0.003 µM
  IC50: 968 nM
Curve of first compound, second compound 0.00949 µM
  IC50: 450 nM
Curve of first compound, second compound 0.03 µM
  IC50: 152 nM
Curve of first compound, second compound 0.0949 µM
  IC50: 40.1 nM
Curve of first compound, second compound 0.3 µM
  IC50: < 31.6 nM
Second compound 0.000949 µM, first compound 0.0316 µM
  viability, T/C: 93%
Second compound 0.000949 µM, first compound 0.1 µM
  viability, T/C: 97.3%
Second compound 0.000949 µM, first compound 0.316 µM
  viability, T/C: 88%
Second compound 0.000949 µM, first compound 1 µM
  viability, T/C: 75.2%
Second compound 0.000949 µM, first compound 3.16 µM
  viability, T/C: 34.6%
Second compound 0.000949 µM, first compound 10 µM
  viability, T/C: 15.8%
Second compound 0.003 µM, first compound 0.0316 µM
  viability, T/C: 95.2%
Second compound 0.003 µM, first compound 0.1 µM
  viability, T/C: 90.3%
Second compound 0.003 µM, first compound 0.316 µM
  viability, T/C: 81.8%
Second compound 0.003 µM, first compound 1 µM
  viability, T/C: 50.8%
Second compound 0.003 µM, first compound 3.16 µM
  viability, T/C: 8.91%
Second compound 0.003 µM, first compound 10 µM
  viability, T/C: 4.54%
Second compound 0.00949 µM, first compound 0.0316 µM
  viability, T/C: 91.7%
Second compound 0.00949 µM, first compound 0.1 µM
  viability, T/C: 96.4%
Second compound 0.00949 µM, first compound 0.316 µM
  viability, T/C: 67.1%
Second compound 0.00949 µM, first compound 1 µM
  viability, T/C: 11%
Second compound 0.00949 µM, first compound 3.16 µM
  viability, T/C: 4.02%
Second compound 0.00949 µM, first compound 10 µM
  viability, T/C: 2.36%
Second compound 0.03 µM, first compound 0.0316 µM
  viability, T/C: 94.4%
Second compound 0.03 µM, first compound 0.1 µM
  viability, T/C: 70.9%
Second compound 0.03 µM, first compound 0.316 µM
  viability, T/C: 13%
Second compound 0.03 µM, first compound 1 µM
  viability, T/C: 7.15%
Second compound 0.03 µM, first compound 3.16 µM
  viability, T/C: 5.36%
Second compound 0.03 µM, first compound 10 µM
  viability, T/C: 2.24%
Second compound 0.0949 µM, first compound 0.0316 µM
  viability, T/C: 56.5%
Second compound 0.0949 µM, first compound 0.1 µM
  viability, T/C: 25.1%
Second compound 0.0949 µM, first compound 0.316 µM
  viability, T/C: 6.77%
Second compound 0.0949 µM, first compound 1 µM
  viability, T/C: 4.69%
Second compound 0.0949 µM, first compound 3.16 µM
  viability, T/C: 4.6%
Second compound 0.0949 µM, first compound 10 µM
  viability, T/C: 2.33%
Second compound 0.3 µM, first compound 0.0316 µM
  viability, T/C: 16.5%
Second compound 0.3 µM, first compound 0.1 µM
  viability, T/C: 9.81%
Second compound 0.3 µM, first compound 0.316 µM
  viability, T/C: 5.67%
Second compound 0.3 µM, first compound 1 µM
  viability, T/C: 4.89%
Second compound 0.3 µM, first compound 3.16 µM
  viability, T/C: 4.53%
Second compound 0.3 µM, first compound 10 µM
  viability, T/C: 2.17%
